Measurements: US20220202811A1, “TREATMENT FOR RETINOIC ACID RECEPTOR-RELATED ORPHAN RECEPTOR Ɣ (RORƔ)-DEPENDENT CANCERS” (The Regents of the University of California, priority 2019, published 2022)
Entries after “also recorded” stand apart in the source; their conditions may differ.

Columns and labels:
KP^f/fC organoids = assay: KP^f/fC organoid culture assay; format: cell-based, mouse
Description: Organoids from REM2-KP^f/fC were passaged at ˜1:2 as previously described (Boj et al., 2015). Briefly, organoids were isolated using Cell Recovery Solution (Corning 354253), then dissociated using Accumax Cell Dissociation Solution (Innovative Cell Technologies AM105), and plated in 20 μl matrigel (BD Biosciences, 354230) domes on a pre-warmed 48-well plate. After incubation at 37° C. for 5 min, domes were covered with 300 μl PancreaCult Organoid Growth Media (Stemcell Technologies). […] Organoids were grown in the presence of vehicle or SR2211 for 4 days, then imaged and quantified, n=3 independent wells plated per dose per treatment group.
KP^f/fC organoid were derived from the REM2-KP^f/fC mice, a germline genetically engineered mouse model for pancreatic ductal adenocarcinoma with the genotype of Msi2^eGFP/Kras^LSL-G12D/+; Pdx^CRE/+; p53^f/f. Briefly, tumors from 10-12-week-old end-stage REM2-KP^f/fC mice were harvested and dissociated into a single cell suspension. Tumor cells were stained with FC block then 0.2 μg/10^6 cells anti-EpCAM APC (eBioscience). REM2+/EpCAM+ (stem) and REM2−/EpCAM+ (non-stem) cells were sorted, resuspended in 20 μl Matrigel (BD Biosciences, 354230), and plated as a dome in a pre-warmed 48-well plate. After incubation at 37° C. for 5 min, domes were covered with 300 μl PancreaCult Organoid Growth Media (Stemcell Technologies). Organoids were imaged and quantified 6 days later. All images were acquired on a Zeiss Axiovert 40 CFL. Organoids were counted and measured using ImageJ 1.51s software.
The derived KP^f/fC organoid were maintained and passaged at ˜1:2. Briefly, organoids were isolated using Cell Recovery Solution (Corning 354253), then dissociated using Accumax Cell Dissociation Solution (Innovative Cell Technologies AM105), and plated in 20 μl Matrigel (BD Biosciences, 354230) domes on a pre-warmed 48-well plate. After incubation at 37° C. for 5 min, domes were covered with 300 μl PancreaCult Organoid Growth Media (Stemcell Technologies).
About 4,000 organoids from each of the non-germline and germline mouse models were plated as single cells in multi-well plates, as described above, and treated with JTE-151 for 4 days (FIG. 48). Organoid number and size were analyzed after treatment. […] In the quantification, different doses of JTE-151 were plotted along the horizontal axis, and the volume of organoids was expressed as relative to control along the vertical axis. […] Organoid volume was then analyzed. Different doses of JTE-151 were plotted along the horizontal axis, and the vertical axis represents relative organoid volume to control.

[1] = test system: primary patient-derived PDX1535 organoids; assay: PDX1535 organoid assay; format: cell-based, human
Description: PDX1535 organoids were derived from a patient of pancreatic cancer. Primary patient organoids were established by digesting patient-derived xenografts for 1 hour at 37° C. in RPMI containing 2.5% FBS, 5 mg/ml Collagenase II, and 1.25 mg/ml Dispase II, followed by passage through a […] mesh filter. Cells were plated at a density of 1.5×10^5 cells per 50 μl Matrigel. After domes were solidified, growth medium was added as follows: RPMI containing 50% Wnt3a conditioned media, 10% RSpondin1-conditioned media, 2.5% FBS, 50 ng/ml EGF, 5 mg/ml Insulin, 12.5 ng/ml hydrocortisone, and 14 μM Rho Kinase Inhibitor. After establishment, organoids were passaged and maintained. Briefly, organoids were isolated using Cell Recovery Solution (Corning 354253), then dissociated into single cell suspension with TrypLE Express (ThermoFisher 12604) supplemented with 25 μg/ml DNase I (Roche) and 14 μM Rho Kinase Inhibitor (Y-27632, Sigma). Cells were split 1:2 into 20 μl domes plated on pre-warmed 48-well plates. Domes were incubated at 37° C. for 5 min, then covered with human complete organoid feeding media without Wnt3a-conditioned media. […] The organoids were imaged and measured at the end of treatment. […] Moreover, the anti-cancer effect of JTE-151 was determined in an organoid assay using pancreatic cancer cells derived from mice bearing primary patient-derived xenografts.

[2] = test system: primary patient-derived organoids; assay: compilation of primary patient-derived organoids; format: cell-based, human
[3] = test system: primary patient-derived PDX1424 cancer cells; assay: PDX1424 xenografts in mice; format: in vivo, human
Description: FIG. 45 is a compilation of all data from mice bearing PDX or FG cancer xenographs, including PDX1424, PDX1444, and FG.
Finally, the impact of JTE-151 was examined in vivo on mice bearing primary patient-derived pancreatic cancer xenografts (FIGS. 70-78). […] FIGS. 70-72 show 3 rounds of treatment in an experiment using mice bearing PDX1356 xenographs. The horizontal axis of the first panel in each of FIGS. 70-72 represents days of treatment, and the vertical axis represents tumor volume. The horizontal axis of each of the remaining panels represents the target (vehicle vs. JTE-151 mouse), and the vertical axis represents the specified measurement. JTE-151 was given at the regimen as specified in the figures. For example, in the first round (FIG. 70), JTE-151 was given at 90 mg/kg body weight once per day for the first 25 days, then twice per day from day 26 though day 40.
Two other primary patient-derived xenografts, PDX1535 (FIGS. 74 and 75) and PDX1424 (FIGS. 76 and 77), were tested using JTE-151 at 90 mg/kg once per day. […] Considering the reduced tumor mass and cell numbers, the absence of a significant change in tumor volume may be due to necrotic cells that remained for a while post drug treatment.

[4] = test system: tumor-bearing KP^f/fC mice; assay: tumor-bearing KP^f/fC mice in vivo (AZD-0284, JTE-151); design: species or system mouse
[5] = 30 mg/kg JTE-151 once daily for about 3 weeks (FIG. 52)
[6] = 90 mg/kg JTE-151, 3 weeks, compilation (FIG. 57)
[7] = 90 mg/kg JTE-151, 3 weeks, individual experiments (FIGS. 53-55)
[8] = JTE-151 at either 30 mg/kg or 90 mg/kg, 3 weeks (FIG. 58)
[9] = 3 μM AZD-0284 + 0.025 nM gemcitabine
[10] = 6 μM AZD-0284 + 0.025 nM gemcitabine
[11] = 12 μM AZD-0284 + 0.025 nM gemcitabine
[12] = AZD-0284 90 mg/kg once daily + gemcitabine 25 mg/kg once weekly, 3 weeks

SMILES: Cc1ccc(NC(=O)C[C@H](CCC(=O)O)c2noc([C@H]3C[C@@H](CC(C)(C)C)C3)c2C2CC2)c(Cl)c1 [JTE-151, (4S)-6-[(2-chloro-4-methylphenyl)amino]-4-{4-cyclopropyl-5-[cis-3-(2,2-dimethylpropyl)cyclobutyl]isoxazol-3-yl}-6-oxohexanoic acid]
- organoid volume (KP^f/fC organoids; JTE-151 at 0.003 μM and 0.03 μM): reduced organoid volume, although not at a statistically significant level
- organoid growth (KP^f/fC organoids; JTE-151 at 0.3 μM, 3 μM, 6 μM, and 9 μM): significantly inhibited
- organoid volume ([1]; 3 μM JTE-151 alone (FIG. 63)): visibly reduced; also recorded: inhibited
- organoid volume ([1]; 3 μM JTE-151 and 0.05 nM gemcitabine combination (FIG. 63)): visibly reduced; also recorded: inhibited
- organoid growth ([1]; JTE-151 alone at 0.3 μM, 1 μM, and 3 μM (FIG. 64)): significant inhibition
- organoid growth ([2]; JTE-151 at 0.3 μM and more so at 3 μM, PDX1356, PDX1535, PDX202, PDX204 (FIG. 68)): significantly inhibited
- EpCam+ tumor epithelial cells ([3]; JTE-151 90 mg/kg once per day): trend of decreased
- EpCam+/CD133+ tumor stem cells ([3]; JTE-151 90 mg/kg once per day): trend of decreased
- total cell counts ([3]; JTE-151 90 mg/kg once per day): trend of decreased
- tumor mass ([3]; JTE-151 90 mg/kg once per day): trend of decreased
- tumor growth rate ([3]; JTE-151 90 mg/kg once per day (FIG. 77)): slower
- EpCam+ tumor epithelial cells [4, 5]: decrease in EpCam+ tumor epithelial cells was statistically significant
- cell number [4, 5]: reduced
- EpCam+ tumor epithelial cells [4, 6]: loss
- cell number [4, 6]: reduced
- EpCam+ tumor epithelial cells [4, 7]: decreased
- EpCam+/CD133+ tumor stem cells [4, 7]: decreased
- change of cell number in the tumor ([4]; 120 mg/kg JTE-151 regimen, mice that responded): varied
- tumor mass ([4]; JTE-151 at 90 mg/kg (FIG. 58)): significantly reduced
- EpCam+ tumor epithelial cells [4, 8]: loss
- cell number [4, 8]: reduced

SMILES: OC(c1ccc(-c2ccc(CN3CCN(Cc4ccncc4)CC3)cc2)c(F)c1)(C(F)(F)F)C(F)(F)F [SR2211]
- organoid formation (KP^f/fC organoids; SR2211 vs vehicle): decreased

SMILES: CC(=O)N1Cc2cc(S(C)(=O)=O)ccc2[C@@H]1C(=O)Nc1ccc(C(O)(C(F)(F)F)C(F)(F)F)cc1 [AZD-0284]
- decrease in organoid volume compared to control (KP^f/fC organoids; [9]): 3.72 fold
- organoid growth in volume (KP^f/fC organoids; 3 μM AZD-0284 in combination with 0.02 nM gemcitabine): visibly decreased; also recorded: inhibited
- decrease in organoid volume compared to control (KP^f/fC organoids; [10]): 5.81 fold
- organoid volume (KP^f/fC organoids; 6 μM AZD-0284 alone): visibly reduced; also recorded: inhibited
- organoid volume (KP^f/fC organoids; 6 μM AZD-0284 and 0.025 nM gemcitabine combination): visibly reduced; also recorded: inhibited
- decrease in organoid volume compared to control (KP^f/fC organoids; [11]): 10.53 fold
- organoid growth (KP^f/fC organoids; AZD-0284 alone, 6 μM or 12 μM (FIG. 32)): significant inhibitory effect
- decrease in organoid volume compared to control [1, 9]: 2.81 fold
- organoid volume ([1]; 3 μM AZD-0284 and 0.04 nM gemcitabine): significant reduction; also recorded: significant inhibition
- decrease in organoid volume compared to control [1, 10]: 4.72 fold
- organoid growth ([1]; 6 μM AZD-0284 alone): visibly inhibited
- organoid growth ([1]; 6 μM AZD-0284 in combination with 0.025 nM gemcitabine): visibly inhibited
- decrease in organoid volume compared to control [1, 11]: 6.90 fold
- organoid volume ([1]; AZD-0284 alone, 6 μM or 12 μM (FIG. 37)): significantly reduced
- organoid growth ([2]; AZD-0284 at 3 μM and more so at 6 μM, PDX1356 and PDX1535 (FIG. 40)): significantly inhibited
- EpCam+ tumor epithelial cells ([3]; 60 mg/kg AZD-0284 for 3 weeks): significant reduction
- EpCam+/CD133+ tumor stem cells ([3]; 60 mg/kg AZD-0284 for 3 weeks): significant reduction
- EpCam+ tumor epithelial cells ([4]; 90 mg/kg AZD-0284 alone): loss
- EpCam+/CD133+ tumor stem cells ([4]; 90 mg/kg AZD-0284 alone): loss
- cell number ([4]; 90 mg/kg AZD-0284 alone): lower
- tumor mass ([4]; 90 mg/kg AZD-0284 alone): lower
- EpCam+ tumor epithelial cells [4, 12]: loss
- EpCam+/CD133+ tumor stem cells [4, 12]: loss
- cell number [4, 12]: lower
